Among the data in patent publication US7932270B2 (Cytokinetics, Inc., priority 2006, dated 2011) are IC50 values, retold here.

pIC50: −log10 of the molar value.

T1 sequence (P02607 2-151): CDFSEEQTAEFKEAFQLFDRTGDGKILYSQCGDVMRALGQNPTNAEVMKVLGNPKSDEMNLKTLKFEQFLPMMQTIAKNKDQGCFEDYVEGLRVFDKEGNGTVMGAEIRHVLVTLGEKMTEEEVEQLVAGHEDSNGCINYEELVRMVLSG
T1 sequence (P10587 84-789): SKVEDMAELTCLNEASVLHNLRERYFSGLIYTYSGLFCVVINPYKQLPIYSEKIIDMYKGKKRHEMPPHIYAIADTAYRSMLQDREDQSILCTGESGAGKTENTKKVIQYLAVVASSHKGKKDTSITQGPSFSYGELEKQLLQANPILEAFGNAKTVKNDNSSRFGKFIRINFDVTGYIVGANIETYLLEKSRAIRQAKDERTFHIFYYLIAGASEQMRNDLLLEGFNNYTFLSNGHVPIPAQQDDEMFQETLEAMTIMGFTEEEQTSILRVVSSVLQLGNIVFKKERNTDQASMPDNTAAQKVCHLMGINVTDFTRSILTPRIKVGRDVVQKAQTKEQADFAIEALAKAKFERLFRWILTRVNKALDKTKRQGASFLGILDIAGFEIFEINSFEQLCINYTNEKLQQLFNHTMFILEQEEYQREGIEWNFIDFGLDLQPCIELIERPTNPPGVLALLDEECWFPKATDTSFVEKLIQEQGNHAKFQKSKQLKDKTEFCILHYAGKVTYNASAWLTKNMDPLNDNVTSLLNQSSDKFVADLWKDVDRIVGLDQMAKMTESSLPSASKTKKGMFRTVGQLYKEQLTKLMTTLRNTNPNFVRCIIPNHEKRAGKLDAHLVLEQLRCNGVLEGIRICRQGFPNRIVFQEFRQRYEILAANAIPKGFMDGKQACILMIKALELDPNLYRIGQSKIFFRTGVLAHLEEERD

The assay addresses T1, chicken gizzard smooth muscle myosin subfragment-1 chemically crosslinked to cardiac or skeletal actin (Gallus gallus, UniProt P10587).
T1 construct: chicken gizzard smooth muscle myosin subfragment-1; from tissue; host or cells: chicken gizzard
Description: Smooth muscle myosin ATPase dose response assay (pyruvate kinase/horseradish peroxidase/pyruvate oxidase-coupled, amplex red fluorescence). In kind it is biochemical. The note with it: read-out: IC50 Arithmetic Mean. Summed up: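 Chicken gizzard myosin S1 crosslinked to cardiac or skeletal actin, titrated to a set hydrolysis rate; 0.15 mM ATP, 12 mM PIPES pH 7.00, 100 mM KCl, 2 mM MgCl2. Pyruvate kinase/pyruvate oxidase/HRP coupling with amplex red fluorescence; IC50 from 4-parameter fit.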
Broadly, the pIC50 is −log10 of the IC50, conventionally taken in molar units. On to `Cn1cc(-c2nc(NCCc3cccc(F)c3)c(C(=O)NC[C@H]3CCC(=O)N3CCCNC(=O)OC(C)(C)C)cc2F)cn1` [N-[((2R)-1-{3-[(tert-butoxy)carbonylamino]propyl}-5-oxopyrrolidin-2-yl)methyl](5-fluoro-2-{[2-(3-fluorophenyl)ethyl]amino}-6-(1-methylpyrazol-4-yl)(3-pyridyl))carboxamide], for which the negative-log IC50 (pIC50) is 6.49.

As for `Cn1ncc(-c2ccc(C(=O)NCc3cccnc3)c(NCCc3cccc(F)c3)n2)c1C#N` [(6-(5-cyano-1-methylpyrazol-4-yl)-2-{[2-(3-fluorophenyl)ethyl]amino}(3-pyridyl))-N-(3-pyridylmethyl)carboxamide], the negative logarithm of the IC50 (pIC50) was 7.70.

As for `CC(=O)NCCCNC(=O)c1cc(F)c(-c2cnn(C)c2)nc1NCCc1cccc(F)c1` [N-{3-[(5-fluoro-2-{[2-(3-fluorophenyl)ethyl]amino}-6-(1-methylpyrazol-4-yl)-3-pyridyl)carbonylamino]propyl}acetamide], the negative logarithm of the IC50 (pIC50) is 5.58.

`O=C(NCc1cccnc1)c1ccc(-c2ccc(C(=O)NCc3cccnc3)c(NCCc3cccc(F)c3)n2)nc1NCCc1cccc(F)c1` [[2-{[2-(3-fluorophenyl)ethyl]amino}-6-(6-{[2-(3-fluorophenyl)ethyl]amino}-5-[N-(3-pyridylmethyl)carbamoyl](2-pyridyl))(3-pyridyl)]-N-(3-pyridylmethyl)carboxamide]: the pIC50 is 4.51.

On to `O=C(NCc1cccnc1)c1ccc(-c2ccccc2)nc1NCC1(O)CCCCC1` [(2-{[(hydroxycyclohexyl)methyl]amino}-6-phenyl(3-pyridyl))-N-(3-pyridylmethyl)carboxamide], for which the pIC50 was 5.11.

`O=Cc1ccc(-c2ccc(C(=O)NCc3cccnc3)c(NCCc3cccc(F)c3)n2)s1` [(2-{[2-(3-fluorophenyl)ethyl]amino}-6-(5-formyl(2-thienyl))(3-pyridyl))-N-(3-pyridylmethyl)carboxamide]: the pIC50 was 7.28.

As for `N#Cc1ccccc1-c1ccc(C(=O)NCc2cccc(C(F)(F)F)n2)c(NCCc2cccc(F)c2)n1` [(6-(2-cyanophenyl)-2-{[2-(3-fluorophenyl)ethyl]amino}(3-pyridyl))-N-{[6-(trifluoromethyl)(2-pyridyl)]methyl}carboxamide], the pIC50 is 6.22.

On to `O=C(NCc1cccnc1)c1ccc(-c2ccsc2)nc1NCCc1ccccn1` [{2-[(2-(2-pyridyl)ethyl)amino]-6-(3-thienyl)(3-pyridyl)}-N-(3-pyridylmethyl)carboxamide], for which the negative logarithm of the IC50 (pIC50) was 6.38.

On to `N#Cc1ccccc1-c1ccc(C(=O)NC[C@@H]2CNCC(=O)N2)c(NCCc2cccc(F)c2)n1` [N-[((2S)-6-oxopiperazin-2-yl)methyl](6-(2-cyanophenyl)-2-{[2-(3-fluorophenyl)ethyl]amino}(3-pyridyl))carboxamide], for which the pIC50 is 6.09.

On to `N#Cc1ccccc1-c1ccc(C(=O)NCCNC(=O)CCN)c(NCCc2cccc(F)c2)n1` [3-amino-N-{2-[(6-(2-cyanophenyl)-2-{[2-(3-fluorophenyl)ethyl]amino}(3-pyridyl))carbonylamino]ethyl}propanamide], for which the pIC50 was 5.36.

Consider `Cc1cccc(CCNc2nc(-c3ccccc3)ccc2C(=O)NCc2cccnc2)c1` [(2-{[2-(3-methylphenyl)ethyl]amino}-6-phenyl(3-pyridyl))-N-(3-pyridylmethyl)carboxamide], for which the pIC50 is 6.35.

Consider `N#Cc1ccccc1-c1ccc(C(=O)NCc2cccnc2)c(NCCc2ccco2)n1` [{6-(2-cyanophenyl)-2-[(2-(2-furyl)ethyl)amino](3-pyridyl)}-N-(3-pyridylmethyl)carboxamide], for which the negative-log IC50 (pIC50) was 7.19.

`N#Cc1ccccc1-c1ccc(C(=O)NC[C@H]2CCCCN2C(=O)[C@H](N)CCN)c(NCCc2cccc(F)c2)n1` [N-{[(2R)-1-((2R)-2,4-diaminobutanoyl)(2-piperidyl)]methyl}(6-(2-cyanophenyl)-2-{[2-(3-fluorophenyl)ethyl]amino}(3-pyridyl))carboxamide]: the pIC50 is 6.40.

Turning to `Cn1cc(-c2nc(NCCc3cccc(F)c3)c(C(=O)NC[C@H]3CCCN3C(=O)[C@H](CCCNC(=O)OC(C)(C)C)NC(=O)OC(C)(C)C)cc2F)cn1` [N-[((2R)-1-{(2S)-2,5-bis[(tert-butoxy)carbonylamino]pentanoyl}pyrrolidin-2-yl)methyl](5-fluoro-2-{[2-(3-fluorophenyl)ethyl]amino}-6-(1-methylpyrazol-4-yl)(3-pyridyl))carboxamide], the pIC50 is 4.71.

`O=C(NCc1cccnc1)c1ccc(-c2ccccc2)nc1NCCc1cccc(C(F)(F)F)c1` [[6-phenyl-2-({2-[3-(trifluoromethyl)phenyl]ethyl}amino)(3-pyridyl)]-N-(3-pyridylmethyl)carboxamide]: the pIC50 was 5.08.

Regarding `N[C@@H](CO)C(=O)N1CCC[C@@H]1CNC(=O)c1cc(F)c(-c2cn[nH]c2)nc1NCCc1cccc(F)c1` [N-{[(2R)-1-((2S)-2-amino-3-hydroxypropanoyl)pyrrolidin-2-yl]methyl}(5-fluoro-2-{[2-(3-fluorophenyl)ethyl]amino}-6-pyrazol-4-yl(3-pyridyl))carboxamide], the negative-log IC50 (pIC50) is 7.23.

With `N#Cc1cc(C(=O)NC[C@H]2CCC(=O)N2CCCN)c(NCCc2cccc(F)c2)nc1-c1cn[nH]c1` [N-{[(2R)-1-(3-aminopropyl)-5-oxopyrrolidin-2-yl]methyl}(5-cyano-2-{[2-(3-fluorophenyl)ethyl]amino}-6-pyrazol-4-yl(3-pyridyl))carboxamide], the pIC50 is 6.13.

Regarding `Cn1cc(-c2nc(NCCc3cccc(F)c3)c(C(=O)NC[C@H]3CCCN3C(=O)CNC(=O)OC(C)(C)C)cc2F)cn1` [N-[((2R)-1-{2-[(tert-butoxy)carbonylamino]acetyl}pyrrolidin-2-yl)methyl](5-fluoro-2-{[2-(3-fluorophenyl)ethyl]amino}-6-(1-methylpyrazol-4-yl)(3-pyridyl))carboxamide], the negative-log IC50 (pIC50) is 6.20.

`O=C(NCc1cccc(NCCO)n1)c1ccc(-c2cn[nH]c2)nc1NCCc1cccc(F)c1` [(2-{[2-(3-fluorophenyl)ethyl]amino}-6-pyrazol-4-yl(3-pyridyl))-N-({6-[(2-hydroxyethyl)amino](2-pyridyl)}methyl)carboxamide]: the pIC50 was 7.41.

Consider `N#Cc1ccccc1-c1ccc(C(=O)NCC2CCCC(=O)N2CCCN)c(NCCc2cccc(F)c2)n1` (stereo not shown) [N-{[1-(3-aminopropyl)-6-oxo(2-piperidyl)]methyl}(6-(2-cyanophenyl)-2-{[2-(3-fluorophenyl)ethyl]amino}(3-pyridyl))carboxamide], for which the negative logarithm of the IC50 (pIC50) is 7.60.

Turning to `CC(C)(CNC(=O)c1ccc(-c2ccccc2C#N)nc1NCCc1cccc(F)c1)NC(=O)CCCN`, the pIC50 is 6.56.

Consider `CNC(=O)/C=C/c1ccc(-c2ccccc2)nc1NCCc1cccc(F)c1` [(2E)-3-(2-{[2-(3-fluorophenyl)ethyl]amino}-6-phenyl(3-pyridyl))-N-methylprop-2-enamide], for which the pIC50 was 4.24.

On to `O=C(NCc1cccnc1)c1ccc(-c2cccc(Cl)c2)nc1NCCc1ccccn1` [{6-(3-chlorophenyl)-2-[(2-(2-pyridyl)ethyl)amino](3-pyridyl)}-N-(3-pyridylmethyl)carboxamide], for which the pIC50 was 5.71.

For `C[C@@H](NC(=O)OC(C)(C)C)C(=O)N1CCC[C@@H]1CNC(=O)c1ccc(-c2ccccc2C#N)nc1NCCc1cccc(F)c1` [N-[(1R)-2-((2R)-2-{[(6-(2-cyanophenyl)-2-{[2-(3-fluorophenyl)ethyl]amino}(3-pyridyl))carbonylamino]methyl}pyrrolidinyl)-1-methyl-2-oxoethyl](tert-butoxy)carboxamide], the pIC50 was 5.40.

In the case of `NC(=O)CCNC(=O)c1ccc(-c2ccc(CO)s2)nc1NCCc1cccc(F)c1` [N-(2-carbamoylethyl)(2-{[2-(3-fluorophenyl)ethyl]amino}-6-[5-(hydroxymethyl)(2-thienyl)](3-pyridyl))carboxamide], the pIC50 was 6.26.

`Cn1cc(-c2ccc(C(=O)NCc3cccnc3)c(NCCc3cccc(F)c3)n2)cn1`: the negative logarithm of the IC50 (pIC50) is 7.40.

On to `CCS(=O)(=O)N1CCNC[C@@H]1CNC(=O)c1ccc(-c2ccccc2C#N)nc1NCCc1cccc(F)c1` [N-{[(2R)-1-(ethylsulfonyl)piperazin-2-yl]methyl}(6-(2-cyanophenyl)-2-{[2-(3-fluorophenyl)ethyl]amino}(3-pyridyl))carboxamide], for which the pIC50 was 4.77.

Turning to `Cn1cc(-c2nc(NCCc3cccc(F)c3)c(C(=O)NCc3cccnc3)cc2C#N)cn1` [(5-cyano-2-{[2-(3-fluorophenyl)ethyl]amino}-6-(1-methylpyrazol-4-yl)(3-pyridyl))-N-(3-pyridylmethyl)carboxamide], the pIC50 is 7.68.

`Cn1cc(-c2nc(NCCc3cccc(F)c3)c(C(=O)NCC3COC(C)(C)OC3)cc2F)cn1` [N-[(2,2-dimethyl(1,3-dioxan-5-yl))methyl](5-fluoro-2-{[2-(3-fluorophenyl)ethyl]amino}-6-(1-methylpyrazol-4-yl)(3-pyridyl))carboxamide]: the pIC50 was 5.65.

Turning to `CNc1ccc(CNC(=O)c2ccc(-c3ccccc3C#N)nc2NCCc2cccc(F)c2)cn1` [(6-(2-cyanophenyl)-2-{[2-(3-fluorophenyl)ethyl]amino}(3-pyridyl))-N-{[6-(methylamino)(3-pyridyl)]methyl}carboxamide], the negative logarithm of the IC50 (pIC50) was 6.53.

`CC1(C)OCC(CNC(=O)c2ccc(-c3ccccc3C#N)nc2NCCc2cccc(F)c2)CO1` [N-[(2,2-dimethyl(1,3-dioxan-5-yl))methyl](6-(2-cyanophenyl)-2-{[2-(3-fluorophenyl)ethyl]amino}(3-pyridyl))carboxamide]: the pIC50 was 5.99.

`O=C(NCc1cccnc1Cl)c1ccc(-c2cn[nH]c2)nc1NCCc1cccc(F)c1`: the negative-log IC50 (pIC50) was 7.34.

As to `C[C@H](CNC(=O)c1ccc(-c2ccccc2C#N)nc1NCCc1cccc(F)c1)N(C)C(=O)CCCN`, the negative logarithm of the IC50 (pIC50) is 6.15.

Take `Cc1ccccc1CCNc1nc(-c2ccccc2)ccc1C(=O)NCc1cccnc1` [(2-{[2-(2-methylphenyl)ethyl]amino}-6-phenyl(3-pyridyl))-N-(3-pyridylmethyl)carboxamide]: the negative-log IC50 (pIC50) was 6.49.
